The text below walks through data of patent US20180193336A1, “SPRAY DRY FORMULATIONS” (Pulmokine, Inc., priority 2013, published 2018).

≈ marks a conversion by molar mass, not a printed value. Like-named read-outs stand apart in the source and are kept apart here.

Series [1] deals with rat MCT+PN model. Nature of the series: Telemetry of pulmonary artery pressure in rat MCT+PN model. The following applies: rat MCT+PN. It counts as in vivo. As for the experimental part: Pneumonectomy and implantation of a TRM53P telemetry monitor in the pulmonary artery (Telemetry Research, New Zealand and ADInstruments, Colorado) was carried out in rats. Two weeks after MCT, PK10453 (Structure 2) was administered three times daily for 1 week. […] The two groups underwent 4 min exposures of either the vehicle control or PK10453 (Structure 2). Sampling of PA pressure was performed 5 min before each morning dose in ambulatory animals in room air (estimated atmospheric pressure 716 mm Hg based on elevation of animal facility). […] Telemetry data was obtained for 10 min daily before each morning dose for this protocol.

Series [2] concerns PDGFAA stimulated phosphorylation of ERK1 and ERK2. Put plainly: PDGFAA stimulated phosphorylation of ERK1 and ERK2 in human fetal lung fibroblasts. The following applies: 1 uM; PDGFAA 10 ng/ml. It counts as cell-based. An excerpt: (§1) Data shown are mean±SEM. […] PK10453=structure 2; PK10571=structure 2a. Platelet derived growth factor receptor alpha=PDGFR-alpha=PDGFR-α=PDGF receptor alpha=PDGF alpha receptor. Platelet derived growth factor receptor beta=PDGFR-beta=PDGFRβ=PDGF receptor beta=PDGF beta receptor.

The conditions of series [3]: typically; cited from earlier work.
A short description of series [4]: Solubility experiments in ethanol/water. An excerpt: To maximize the amount of hydrophobic shell former (Leucine) on the surface, a higher ratio is desired.
Series [5] relates to PDGFBB stimulated AKT phosphorylation. Nature of the series: In cell Western, PDGFBB stimulated AKT phosphorylation in human fetal lung fibroblasts. It counts as cell-based. To be noted: for IC50 for inhibiting PDGFBB stimulated AKT phosphorylation relative to imatinib: fetal human lung fibroblasts, FIG. 18. As for the experimental part: HLFs were maintained in subculture at no more than 6 passages in DMEM with 5% FBS and 4 mM Glutamax at 37° C., 5% CO2. HLFs were plated and grown to 70-80% confluence in 96 well plates then serum-starved for 48 hours. […] Antibodies were detected using IRDye 680LT goat anti-mouse IgG and IRDye 800 W goat α-rabbit IgG conjugated antibodies. After washing, the signal was quantified using an Odyssey Infrared Imaging System (LI-COR). Phosphoprotein signal (800 nm) was normalized to total protein signal (700 nm) acquired from each well and experimental duplicates on same plate were averaged and reported.

In series [6] the test system is phosphorylated PDGF receptor beta (Y751, Y1021). Put plainly: Western blot of phosphorylated PDGF receptor beta in adult human lung fibroblasts. To be noted: HLFa; 0.01-10 uM, 30 min pre-treatment; 10 ng/mL PDGF BB 7.5 minutes.
Procedure: FIG. 40 PANEL A illustrates pPDGFrBeta (Y751), Beta-Actin, Stripped and reprobed with Total PDGFrBeta, note that 25 ug/lane was loaded, with a 1:500 dilution of pPDGFrBeta(Y751) antibody during incubation.
FIG. 40 PANEL B illustrates pPDGFrBeta (Y1021), Beta-Actin, Stripped and reprobed with Total PDGFrBeta, note that 25 ug/lane was loaded, with a 1:500 dilution of pPDGFrBeta(Y1021) antibody during incubation.
Series [7] deals with rat monocrotaline pneumonectomy model. The following applies: inhaled twice daily for ten days.
Procedure: Study protocol: male Sprague Dawley rats underwent left pneumonectomy and 10 days later were given monocrotaline 50 mg/kg IP.
Plethysmography was performed with an EMKA 2 chamber body plethysmograph and data acquired with IOX software. Statistical analysis was performed with XLSTAT.
The subject of series [8] is PDGFBB stimulated phosphorylation of ERK1 and ERK2. Put plainly: PDGFBB stimulated phosphorylation of ERK1 and ERK2 in human fetal lung fibroblasts. It counts as cell-based.
Excerpt: as §1

Series [9] has as its system rat MCT+PN model. Nature of the series: Inhaled PK10571 dry powder in rat MCT+PN model, PA telemetry. It counts as in vivo. An excerpt: We performed a pre-clinical efficacy study of inhaled PK10571 in the rat MCT+PN model. We used the MCT+PN model, because in this model, neointimal pulmonary arteriole proliferative lesions occur in a manner similar to what is observed in the human disease. In this experiment, drug treatment was started later than in prior studies of PK10453.
In prior studies, PK10453 was started 2 weeks after MCT injection (3 weeks after pneumonectomy). In the PK10571 SDD study, treatment was started 3 weeks after MCT injection (4 weeks after pneumonectomy). It should be noted that pneumonectomized rats given MCT develop severe PAH starting two weeks after the MCT injection. (In MCT only rats, it takes longer for PAH to develop (i.e., 3 weeks)). […] A. PK10453 study time drug treatment started (See Pulm Circ 2014 8(1):82-102). B. PK10571 SDD study time treatment started in MCT+PN model. C. Start time typical for MCT only model. Data acquired via telemetry monitoring of PA pressures in ambulatory rats. (Note: Day 11 in MCT+PN model data not shown).
PK10571 dry powder with leucine and trehalose excipient was administered by nose only inhalation 30 minutes (on average) twice a day to the rats, via a Vilnius Dry Powder Generator connected to a CH Technologies Exposure tower. Estimated average API dose deposited in lung 0.25 mg/kg (calculated from measurement of aerosol concentration and minute ventilation of pneumonectomized rat) with estimated human dose equivalent (HED) 0.04 mg/kg. […] The mode of death of these animals has not been fully characterized but may be related to RV failure. We have noted that although pulmonary pressures rise gradually and progressively over a period of two weeks after MCT injection, in the third week, animals may enter a “crisis” phase and die suddenly. […] This finding confirms the disease modifying potential of PK10571. One animal in the drug treatment group was euthanized for weight loss on day 5 as per our preset criteria.

Series [10] concerns SU5416/hypoxia/normoxia model of PAH. Put plainly: PK10571 in SU5416/hypoxia/normoxia model of PAH. It counts as in vivo, rat. On the procedure:
The SU5416/hypoxia/normoxia model of PAH is well described in the field, is considered to accurately reflect the human disease of PAH and to predict drug response in humans^25. Study animals were administered SU5416 20 mg/kg SQ and placed in a COY Hypoxia chamber at FiO2=10%. Animals studied after 1 week hypoxia; 2 weeks hypoxia/12 days normoxia; 3 weeks hypoxia/12 days normoxia; and 3 weeks hypoxia/5 weeks normoxia. End of study procedures included acquisition of right ventricular pressure volume loops with a Scisense Admittance system. The RV PV loops were acquired on ventilated open chest animals with isoflurane anesthesia and 100% F1O2. In addition a subset of animals had implantation of DSI PAC40 telemetry catheters in the PA. In this subset, PA pressures were monitored continuously in ambulatory animals, and analysis of PA pressures before and after dosing was performed for 7 days of dosing.
PK10571/trehalose/leucine dry powder or Vehicle was administered twice a day via the CH Technologies Exposure System, in the SUGEN5416/2 week hypoxia/normoxia 2 week subgroups.
In the SU5416 model we also examined microfil radiopaque casts of the pulmonary arterial circulation with microCT and 3D reconstruction. The casts were made after flushing the pulmonary circulation of the rats with heparinized saline followed by sodium nitroprusside to maximally vasodilate the pulmonary arterial vessels. Microfil was then injected with a syringe pump at 0.2 ml/min until the proximal PA was engorged and a lattice of microfil was visible in the peripheral lung. The chest was filled with ice saline until the microfil was cured. […] Vehicle treated animal on left. PK10571 treated animal on right. Resolution: 20 microns.

Series [11] concerns the target PDGFRbeta (Homo sapiens, UniProt P09619). The following applies: FIG. 25. As for the experimental part: A Z-lyte kinase assay was performed to determine the inhibition of PDGFRalpha and PDGFRbeta mediated phosphorylation by PK10453 (Structure 2). Ten point titration curves were modeled to calculate the IC50 (Invitrogen Select Screen®).
The mark [12] stands for this setting: dry powder with leucine and trehalose, inhaled twice a day, within treatment group.

PDGFRbeta, sequence (P09619 600-962 limits assumed): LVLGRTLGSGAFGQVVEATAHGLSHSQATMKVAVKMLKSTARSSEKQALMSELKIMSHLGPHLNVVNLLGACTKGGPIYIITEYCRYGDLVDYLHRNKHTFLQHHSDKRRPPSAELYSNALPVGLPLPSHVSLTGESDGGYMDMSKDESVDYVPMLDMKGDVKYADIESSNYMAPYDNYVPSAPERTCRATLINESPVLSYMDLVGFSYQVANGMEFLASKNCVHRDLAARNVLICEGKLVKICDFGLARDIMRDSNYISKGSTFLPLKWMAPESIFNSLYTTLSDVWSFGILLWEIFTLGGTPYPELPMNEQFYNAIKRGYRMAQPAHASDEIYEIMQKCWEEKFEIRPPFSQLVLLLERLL

`Cc1ccc(NC(=O)c2ccc(CN3CCN(C)CC3)cc2)cc1Nc1nccc(-c2cccnc2)n1` [Imatinib, reference compound]: in series [1], the “efficacy by inhalation in the MCT+PN model” value is “not effective”. The “decrease of PDGF AA stimulated ppERK1 and ppERK2 formation” value in series [2] is “equally effective”.

Take `CC(C)C[C@H](N)C(=O)O` [L-Leucine]: in series [3], the “solubility in EtOH” value was “insoluble” and the solubility in water was 25 to 30 mg/mL. In addition, in series [4], the “concentration obtained with a 2:1 EtOH:H2O mixture” value was “up to 13 mg/ml”. Besides, in series [4] (room temperature), the “concentration at which precipitated, 1:1 v:v EtOH:H2O solution” value is 5000 to 10000 µg/mL.

For the molecule `COc1cc(-c2cncc(N[C@@H](C)c3cccc(NC(=O)c4cnc(C#N)nc4)c3)n2)ccc1O` [PK10467], the “IC50 for inhibiting PDGFBB stimulated AKT phosphorylation relative to imatinib” value in series [5] is on record as “lower IC50 concentration compared to imatinib”.

With `C=CS(=O)(=O)NCc1ccc(C(=O)Nc2cccc([C@H](C)Nc3cncc(-c4ccc(O)c(OC)c4)n3)c2)cc1` [PK10468], the “IC50 for inhibiting PDGFBB stimulated AKT phosphorylation relative to imatinib” value in series [5] is “lower IC50 concentration compared to imatinib”.

As for `COc1cc(-c2cncc(N[C@@H](C)c3cccc(NC(=O)c4cncc(C)c4)c3)n2)ccc1C` [PK10569], in series [5], the “IC50 for inhibiting PDGFBB stimulated AKT phosphorylation relative to imatinib” value is reported as “lower IC50 concentration compared to imatinib”.

As for `COc1ccc(-c2cncc(N[C@@H](C)c3cccc(NC(=O)c4cncc(C)c4)c3)n2)cc1OC` [PK10571], the “phosphorylation of PDGF receptor beta” value in series [6] was “decreases phosphorylation”. In series [7], the “airway resistance compared to vehicle” value is reported as “no significant difference”, the “minute ventilation compared to vehicle” value is reported as “no significant difference”, the “respiratory rate compared to vehicle” value is given as “lower” and the “tidal volume compared to vehicle” value is reported as “significantly improved”. In addition, the “decrease of PDGF BB stimulated ppERK1 and ppERK2 relative to imatinib” value in series [8] (1 uM and 10 uM) is on record as “more effective”. Also, in [8] (1 uM, PDGF BB 10 ng/ml), the “decrease of PDGFBB stimulated ppERK1 formation” value is listed as “effective”. Moreover, the half-inhibitory concentration (IC50) in series [5] (Homo sapiens, Fibroblast, FIG. 26, each concentration in duplicate, read-out: IC50, PDGF BB stimulated pAKT in human lung fibroblasts) was found to be 0.05 µM. The “IC50 for inhibiting PDGFBB stimulated AKT phosphorylation relative to imatinib” value in [5] is recorded as “lower IC50 concentration compared to imatinib”. Moreover, the “effect on pulmonary artery pressures” value in series [9] (dry powder containing leucine and trehalose) was “effective in lowering pulmonary artery pressures”. In addition, in [9] (setting [12]), the “reduction of PA pressure, day 8 compared to day 1” value came to 22% and the “reduction of PA pressure, day 8 vs. day 3” value is reported as 35%. For the same molecule, the “PA systolic pressure post dose (approximately 1 hour) vs pre-dose” value in series [9] (early stage of treatment, up to day 4) is “transient decrease”. Also, the “RV end systolic pressure compared to vehicle” value in [10] (SU5416, 2 weeks hypoxia, 12 days normoxia, PK10571/trehalose/leucine dry powder twice a day) is given as “significant reduction”. The “PA systolic pressure after dosing compared to before dosing” value in series [10] (on some days, telemetry) is listed as “significant decrease”. Further, the “3D microCT of pulmonary arterial vasculature” value in series [10] (preliminary, compared to vehicle treated animal) is “more third and fourth generation branches”. The “potency against PDGFR beta kinase domain relative to imatinib” value in [11] was “more potent than imatinib”. In series [4] (aqueous with cosolvent or surfactant or cyclodextrin), the solubility was determined as 50 mg/mL (≈ 106 mM). Besides, the solubility in series [4] (organic solvent or mixture) amounted to 50 mg/mL (≈ 106 mM). Besides, in series [4] (pH 7), the solubility in water result is “insoluble”. Besides, the “decrease of PDGF AA stimulated ppERK1 and ppERK2 formation” value in [2] is on record as “equally effective”.
